{"source": "patent US20210238528A1", "about": "“CELL SCAFFOLD MATERIAL” (Stem Cell & Device Laboratory, Inc., priority 2018, published 2021)", "tested_on": "myocardial cells derived from human iPS cells", "experiment": "Drug response of myocardial cells determined with MEA probe", "settings": "for Drug response, Oriented fiber sheet 2: myocardial cells cultured 7 days with oriented fiber sheet 2, pitch 10 μm"}
{"compound": "COc1ccc(CCN(C)CCCC(C#N)(c2ccc(OC)c(OC)c2)C(C)C)cc1OC", "note": "(stereo not shown) [Verapamil]", "values": [{"measurement": "arrest (division stop)", "setting": "0.3 μM verapamil, myocardial cells directly cultured on MEA probe", "result": "arrest (division stop) occurred"}, {"measurement": "Drug response, Oriented fiber sheet 2", "result": "No arrest occurred."}, {"measurement": "Drug response, Oriented fiber sheet 2", "setting": "listed as verapamil", "result": "no an arrest (division stop) occurred"}, {"measurement": "Drug response, MEA probe", "setting": "myocardial cells cultured directly on MEA probe", "result": "Arrest occurred."}]}
